Laboratory results published in patent publication US10421750B2, “Substituted morpholine derivatives having activity against pain” (ESTEVE PHARMACEUTICALS, S.A., priority 2015, dated 2019).

Each compound was assayed against human σ1 receptor (Homo sapiens (Human), UniProt Q99720) (assay: Human σ1 receptor radioligand assay ([3H](+)-pentazocine, transfected HEK-293 membranes)). Conditions: binding to the σ1 receptor expressed as Ki, [3H](+)-pentazocine 5 nM.
Protocol: Human σ1 Receptor Radioligand Assay
To investigate binding properties of test compounds to human σ1 receptor, transfected HEK-293 membranes and [^3H](+)-pentazocine (Perkin Elmer, NET-1056), as the radioligand, were used. The assay was carried out with 7 μg of membrane suspension, 5 nM of [^3H](+)-pentazocine in either absence or presence of either buffer or 10 μM Haloperidol for total and non-specific binding, respectively. Binding buffer contained Tris-HCl 50 mM at pH 8. Plates were incubated at 37° C. for 120 minutes. After the incubation period, the reaction mix was then transferred to MultiScreen HTS, FC plates (Millipore), filtered and plates were washed 3 times with ice-cold 10 mM Tris-HCL (pH7.4). Filters were dried and counted at approximately 40% efficiency in a MicroBeta scintillation counter (Perkin-Elmer) using EcoScint liquid scintillation cocktail

Sequence of human σ1 receptor (Q99720 whole entry): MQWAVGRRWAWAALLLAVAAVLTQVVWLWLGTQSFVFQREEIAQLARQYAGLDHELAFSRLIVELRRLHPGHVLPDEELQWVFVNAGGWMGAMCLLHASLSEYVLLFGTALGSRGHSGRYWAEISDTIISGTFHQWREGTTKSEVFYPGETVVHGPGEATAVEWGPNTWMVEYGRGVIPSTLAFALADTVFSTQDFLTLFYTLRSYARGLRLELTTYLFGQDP

Row | Compound | Ki [nM]
1 | O=C(c1ccccc1)N1CC(C2CCN(CCc3ccccc3)CC2)OC2(CC2)C1 (stereo not shown) [Example 2, (5-(1-phenethylpiperidin-4-yl)-4-oxa-7-azaspiro[2.5]octan-7-yl)(phenyl)methanone] | < 500
2 | O=C(c1ccccc1)N1CC(C2CCN(Cc3ccccc3)CC2)OC2(CC2)C1 (stereo not shown) [Example 4, (5-(1-benzylpiperidin-4-yl)-4-oxa-7-azaspiro[2.5]octan-7-yl)(phenyl)methanone] | < 100
3 | CCN1CC(C2CCN(Cc3ccccc3)CC2)OC2(CC2)C1=O (stereo not shown) [Example 5, 5-(1-benzylpiperidin-4-yl)-7-ethyl-4-oxa-7-azaspiro[2.5]octan-8-one] | < 100
4 | CCN1CCC(C2CN(Cc3ccc(OC)cc3)C(=O)C3(CC3)O2)CC1 (stereo not shown) [Example 6, 5-(1-ethylpiperidin-4-yl)-7-(4-methoxybenzyl)-4-oxa-7-azaspiro[2.5]octan-8-one] | ≥ 500
5 | CCN1CC(C2CCN(CCc3ccccc3)CC2)OC2(CC2)C1=O (stereo not shown) [Example 7, 7-Ethyl-5-(1-phenethylpiperidin-4-yl)-4-oxa-7-azaspiro[2.5]octan-8-one] | < 500
6 | CC(C)N1CC(C2CCN(CCc3ccccc3)CC2)OC2(CC2)C1=O (stereo not shown) [Example 8, 7-isopropyl-5-(1-phenethylpiperidin-4-yl)-4-oxa-7-azaspiro[2.5]octan-8-one] | < 500
7 | CCN1CC(C2CCN(CCc3ccccc3)CC2)OC2(CC2)C1 (stereo not shown) [Example 11, 7-Ethyl-5-(1-phenethylpiperidin-4-yl)-4-oxa-7-azaspiro[2.5]octane] | < 500
8 | COc1ccc(CN2CC(C3CCN(Cc4ccccc4)CC3)OC3(CC3)C2)cc1 (stereo not shown) [Example 12, 5-(1-benzylpiperidin-4-yl)-7-(4-methoxybenzyl)-4-oxa-7-azaspiro[2.5]octane] | < 100
9 | COc1ccc(CN2CC(C3CCN(CCC(C)C)CC3)OC3(CC3)C2=O)cc1 (stereo not shown) [Example 16, 5-(1-isopentylpiperidin-4-yl)-7-(4-methoxybenzyl)-4-oxa-7-azaspiro[2.5]octan-8-one] | < 500
10 | CCN1C[C@@H](C2CCN(Cc3ccccc3)CC2)O[C@@H](C)C1=O [Example 23, (2S,6R)-6-(1-benzylpiperidin-4-yl)-4-ethyl-2-methylmorpholin-3-one] | ≥ 500
11 | CCN1C[C@H](C2CCN(Cc3ccccc3)CC2)O[C@@H](C)C1=O [Example 24, (2S,6S)-6-(1-benzylpiperidin-4-yl)-4-ethyl-2-methylmorpholin-3-one] | ≥ 500
12 | CCN1C[C@H](C2CCN(Cc3ccc(F)cc3)CC2)O[C@@H](C)C1=O [Example 28, (2S,6S)-4-ethyl-6-(1-(4-fluorobenzyl)piperidin-4-yl)-2-methylmorpholin-3-one] | ≥ 500
13 | CCN1C[C@@H](C2CCN(Cc3ccc(F)cc3)CC2)O[C@H](C)C1=O [Example 29, (2R,6R)-4-ethyl-6-(1-(4-fluorobenzyl)piperidin-4-yl)-2-methylmorpholin-3-one] | ≥ 500
14 | CCN1C[C@H](C2CCN(Cc3ccc(F)cc3)CC2)O[C@H](C)C1=O [Example 30, (2R,6S)-4-ethyl-6-(1-(4-fluorobenzyl)piperidin-4-yl)-2-methylmorpholin-3-one] | ≥ 500
15 | CCN1C[C@H](C2CCN(Cc3ccc(C#N)cc3)CC2)O[C@H](C)C1=O [Example 34, 4-((4-((2S,6R)-4-ethyl-6-methyl-5-oxomorpholin-2-yl)piperidin-1-yl)methyl)benzonitrile] | ≥ 500
16 | CCN1CC(C2CCN(Cc3ccc(C#N)cc3)CC2)OC2(CC2)C1=O (stereo not shown) [Example 36, 4-((4-(7-ethyl-8-oxo-4-oxa-7-azaspiro[2.5]octan-5-yl)piperidin-1-yl)methyl)benzonitrile] | ≥ 500
17 | CC(C)N1CC(C2CCN(Cc3ccccc3)CC2)OC2(CC2)C1=O (stereo not shown) [Example 37, 5-(1-benzylpiperidin-4-yl)-7-isopropyl-4-oxa-7-azaspiro[2.5]octan-8-one] | ≥ 500
18 | CC(C)N1CC(C2CCN(Cc3ccc(C#N)cc3)CC2)OC2(CC2)C1=O (stereo not shown) [Example 39, 4-((4-(7-isopropyl-8-oxo-4-oxa-7-azaspiro[2.5]octan-5-yl)piperidin-1-yl)methyl)benzonitrile] | ≥ 500
19 | CCN1CC(C2CCN(CCC(C)C)CC2)OC2(CC2)C1=O (stereo not shown) [Example 40, 7-ethyl-5-(1-isopentylpiperidin-4-yl)-4-oxa-7-azaspiro[2.5]octan-8-one] | < 500
20 | CCN1CC(C2CCN(Cc3ccccc3)CC2)OCC1=O (stereo not shown) [Example 41, 6-(1-benzylpiperidin-4-yl)-4-ethylmorpholin-3-one] | < 100
21 | CCN1CC(C2CN(Cc3ccccc3)C2)OC2(CC2)C1=O (stereo not shown) [Example 42, 5-(1-benzylazetidin-3-yl)-7-ethyl-4-oxa-7-azaspiro[2.5]octan-8-one] | < 500
22 | CC(C)CCN1CCC(C2CN(c3ccccc3)C(=O)C3(CC3)O2)CC1 (stereo not shown) [Example 44, 5-(1-isopentylpiperidin-4-yl)-7-phenyl-4-oxa-7-azaspiro[2.5]octan-8-one] | < 500
23 | O=C1N(c2ccccc2)CC(C2CN(Cc3ccccc3)C2)OC12CC2 (stereo not shown) [Example 45, 5-(1-benzylazetidin-3-yl)-7-phenyl-4-oxa-7-azaspiro[2.5]octan-8-one] | < 100

Second part, the compound after the results:

Row | Ki [nM] | Compound
24 | ≥ 500 | COc1ccc(CN2CC(C3CCN(CCc4ccccc4)CC3)OC3(CC3)C2=O)cc1 (stereo not shown) [Example 1, 7-(4-Methoxybenzyl)-5-(1-phenethylpiperidin-4-yl)4-oxa-7-azaspiro[2.5]octan-8-one]
25 | < 500 | COc1ccc(CN2CC(C3CCN(Cc4ccccc4)CC3)OC3(CC3)C2=O)cc1 (stereo not shown) [Example 3, 5-(1-Benzylpiperidin-4-yl)-7-(4-methoxybenzyl)-4-oxa-7-azaspiro[2.5]octan-8-one]
26 | ≥ 500 | O=C1N(c2ccccc2)CC(C2CCN(CCc3ccccc3)CC2)OC12CC2 (stereo not shown) [Example 9, 5-(1-Phenethylpiperidin-4-yl)-7-phenyl-4-oxa-7-azaspiro[2.5]octan-8-one]
27 | < 500 | O=C1N(c2ccccc2)CC(C2CCN(Cc3ccccc3)CC2)OC12CC2 (stereo not shown) [Example 10, 5-(1-benzylpiperidin-4-yl)-7-phenyl-4-oxa-7-azaspiro[2.5]octan-8-one]
28 | ≥ 500 | COc1ccc(CN2CC(C3CCN(CCc4ccccc4)CC3)OC3(CC3)C2)cc1 (stereo not shown) [Example 13, 7-(4-methoxybenzyl)-5-(1-phenethylpiperidin-4-yl)-4-oxa-7-azaspiro[2.5]octane]
29 | < 100 | CCN1CC(C2CCN(Cc3ccccc3)CC2)OC2(CC2)C1 (stereo not shown) [Example 14, 5-(1-benzylpiperidin-4-yl)-7-ethyl-4-oxa-7-asazaspiro[2.5]octane]
30 | ≥ 500 | COc1ccc(CN2CC(C3CCN(CC(C)C)CC3)OC3(CC3)C2=O)cc1 (stereo not shown) [Example 15, 5-(1-isobutylpiperidin-4-yl)-7-(4-methoxybenzyl)-4-oxa-7-azaspiro[2.5]octan-8-one]
31 | < 500 | COc1ccc(CN2CC(C3CCN(Cc4ccccc4)CC3)OCC2=O)cc1 (stereo not shown) [Example 21, 6-(1-benzylpiperidin-4-yl)-4-(4-methoxybenzyl)morpholin-3-one]
32 | < 500 | CCN1CC(C2CN(CCC(C)C)C2)OC2(CC2)C1=O (stereo not shown) [Example 22, 7-ethyl-5-(1-isopentylazetidin-3-yl)-4-oxa-7-azaspiro[2.5]octan-8-one]
33 | ≥ 500 | CCN1C[C@@H](C2CCN(Cc3ccccc3)CC2)O[C@H](C)C1=O [Example 25, (2R,6R)-6-(1-benzylpiperidin-4-yl)-4-ethyl-2-methylmorpholin-3-one]
34 | ≥ 500 | CCN1C[C@H](C2CCN(Cc3ccccc3)CC2)O[C@H](C)C1=O [Example 26, (2R,6S)-6-(1-benzylpiperidin-4-yl)-4-ethyl-2-methylmorpholin-3-one]
35 | ≥ 500 | CCN1C[C@@H](C2CCN(Cc3ccc(F)cc3)CC2)O[C@@H](C)C1=O [Example 27, (2S,6R)-4-ethyl-6-(1-(4-fluorobenzyl)piperidin-4-yl)-2-methylmorpholin-3-one]
36 | ≥ 500 | CCN1C[C@@H](C2CCN(Cc3ccc(C#N)cc3)CC2)O[C@@H](C)C1=O [Example 31, 4-((4-((2R,6S)-4-ethyl-6-methyl-5-oxomorpholin-2-yl)piperidin-1-yl)methyl)benzonitrile]
37 | ≥ 500 | CCN1C[C@H](C2CCN(Cc3ccc(C#N)cc3)CC2)O[C@@H](C)C1=O [Example 32, 4-((4-((2S,6S)-4-ethyl-6-methyl-5-oxomorpholin-2-yl)piperidin-1-yl)methyl)benzonitrile]
38 | ≥ 500 | CCN1C[C@@H](C2CCN(Cc3ccc(C#N)cc3)CC2)O[C@H](C)C1=O [Example 33, 4-((4-((2R,6R)-4-ethyl-6-methyl-5-oxomorpholin-2-yl)piperidin-1-yl)methyl)benzonitrile]
39 | ≥ 500 | CCN1CC(C2CCN(Cc3ccc(F)cc3)CC2)OC2(CC2)C1=O (stereo not shown) [Example 35, 7-ethyl-5-(1-(4-fluorobenzyl)piperidin-4-yl)-4-oxa-7-azaspiro[2.5]octan-8-one]
40 | ≥ 500 | CC(C)N1CC(C2CCN(Cc3ccc(F)cc3)CC2)OC2(CC2)C1=O (stereo not shown) [Example 38, 5-(1-(4-fluorobenzyl)piperidin-4-yl)-7-isopropyl-4-oxa-7-azaspiro[2.5]octan-8-one]
41 | < 500 | CCN1CC(C2CN(CCc3ccccc3)C2)OC2(CC2)C1=O (stereo not shown) [Example 43, 7-ethyl-5-(1-phenethylazetidin-3-yl)-4-oxa-7-azaspiro[2.5]octan-8-one]
42 | < 500 | COc1ccc(CN2CC(C3CCN(CC(C)C)CC3)OC3(CC3)C2)cc1 (stereo not shown) [Example 46, 5-(1-isobutylpiperidin-4-yl)-7-(4-methoxybenzyl)-4-oxa-7-azaspiro[2.5]octane]
43 | < 100 | COc1ccc(CN2CC(C3CCN(CCC(C)C)CC3)OC3(CC3)C2)cc1 (stereo not shown) [Example 47, 5-(1-isopentylpiperidin-4-yl)-7-(4-methoxybenzyl)-4-oxa-7-azaspiro[2.5]octane]
